Measured values: paper PMC5490255, “Minute Impurities Contribute Significantly to Olfactory Receptor Ligand Studies: Tales from Testing the Vibration Theory” (eNeuro, 2017)

Experiments:
Or42b (dOr42b) [1] = target: T1, Or42b (dOr42b) (Drosophila melanogaster, UniProt Q9V9I4); assay: GC-coupled calcium imaging (GCaMP6m) of Or42b neurons; settings: inhibitory (calcium decrease) at own elution time, direct receptor action not separately proven
T1 construct: native receptor in Or42b olfactory sensory neurons of living female flies (Or42b-Gal4 > UAS-GCaMP6m); calcium imaging of antenna or glomerulus DM1; endogenous Orco; with Odorant receptor coreceptor
T1 sequence (Q9V9I4 1-399): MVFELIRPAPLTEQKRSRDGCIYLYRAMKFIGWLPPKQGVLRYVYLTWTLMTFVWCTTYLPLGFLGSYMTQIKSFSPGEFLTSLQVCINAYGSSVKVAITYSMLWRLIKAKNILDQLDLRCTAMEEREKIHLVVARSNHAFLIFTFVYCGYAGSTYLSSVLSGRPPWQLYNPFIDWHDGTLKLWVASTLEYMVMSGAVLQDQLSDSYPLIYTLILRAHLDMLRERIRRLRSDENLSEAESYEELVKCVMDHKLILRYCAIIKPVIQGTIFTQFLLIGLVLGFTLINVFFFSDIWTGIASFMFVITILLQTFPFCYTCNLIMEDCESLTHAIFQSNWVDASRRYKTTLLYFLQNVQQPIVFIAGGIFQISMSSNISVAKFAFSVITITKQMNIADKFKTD
T1 sequence (Q9VNB5 1-486 partner): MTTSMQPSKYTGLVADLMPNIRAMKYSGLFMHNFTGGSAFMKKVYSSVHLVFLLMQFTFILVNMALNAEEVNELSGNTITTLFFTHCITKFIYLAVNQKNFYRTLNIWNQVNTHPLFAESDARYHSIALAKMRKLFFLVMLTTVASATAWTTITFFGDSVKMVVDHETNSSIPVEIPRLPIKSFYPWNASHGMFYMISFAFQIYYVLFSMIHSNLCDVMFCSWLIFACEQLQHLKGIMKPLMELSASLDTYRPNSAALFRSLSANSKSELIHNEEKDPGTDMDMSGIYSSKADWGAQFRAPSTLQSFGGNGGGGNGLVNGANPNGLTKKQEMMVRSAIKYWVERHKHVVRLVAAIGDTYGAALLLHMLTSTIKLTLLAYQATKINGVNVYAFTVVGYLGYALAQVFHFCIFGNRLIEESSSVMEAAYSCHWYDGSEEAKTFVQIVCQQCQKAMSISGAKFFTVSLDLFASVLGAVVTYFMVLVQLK

Or42b (dOr42b) [2] = target: T1, Or42b (dOr42b); assay: GC-coupled antennal calcium imaging (GCaMP6m) of Or42b neurons, single dose; settings: agonist, 10^-2 dilution
[3] = GC-purified eluate of headspace

SMILES | GC-coupled antennal calcium imaging (GCaMP6m) of Or42b neurons, single dose (Or42b (dOr42b) [2]; [3]) | further results
O=Cc1ccccc1 [benzaldehyde-h] | – | GC-coupled calcium imaging (GCaMP6m) of Or42b neurons (Or42b (dOr42b) [1]; 10^-2 dilution): response to either benzaldehyde-h or benzaldehyde-d5 was inhibitory at the elution time of benzaldehyde
CCOC(=O)C[C@H](C)O [ethyl (S)-(+)-3-hydroxybutyrate] | ethyl propionate, propyl acetate, and ethyl (S)-(+)-3-hydroxybutyrate all elicited responses that decayed slowly | –
CCOC(=O)CC [ethyl propionate] | ethyl propionate, propyl acetate, and ethyl (S)-(+)-3-hydroxybutyrate all elicited responses that decayed slowly | –
CCCOC(C)=O [propyl acetate] | ethyl propionate, propyl acetate, and ethyl (S)-(+)-3-hydroxybutyrate all elicited responses that decayed slowly | –
O=Cc1ccccc1 [benzaldehyde-d5] | – | GC-coupled calcium imaging (GCaMP6m) of Or42b neurons (Or42b (dOr42b) [1]; 10^-2 and 10^-1 dilution, deuterated compound, excitation without GC due to ethyl acetate impurity): response to either benzaldehyde-h or benzaldehyde-d5 was inhibitory at the elution time of benzaldehyde
CCCC(=O)OCC [ethyl butyrate] | – | GC-coupled antennal calcium imaging (GCaMP6m) of Or42b neurons, single dose (Or42b (dOr42b) [2]; GC-purified, own elution peak (sample also held other active impurities)): unknown, and one corresponding to ethyl butyrate itself
